Experimental data: patent US9296778B2, “3′,5′-cyclic phosphate prodrugs for HCV infection” (Idenix Pharmaceuticals, Inc., priority 2012, dated 2016)

Key:
[1] = Stability in simulated intestinal fluid; type: in vitro ADME; details: 100 μM, 2 hours at 37° C., percent of the peak area at time zero
Experimental: Simulated gastric and intestinal fluids containing pepsin and pancreatin respectively were prepared according to the U.S. Pharmacopoeia USP291 procedure (www.pharmacopeia.cn/v29240/usp29nf24s0_ris1s126.html). Compounds (final concentration 100 μM) were incubated in duplicate in the appropriate fluid for 2 hours at 37° C. The samples were quenched with 200 μl cold acetonitrile, vortexed for 30 seconds and then centrifuged at 16,100 g for 10 min. The supernatants were analyzed by HPLC on a C-18 column with UV detection at 252 nm. The time 0 samples were prepared by adding SGF or SIF fluid to the quenching solvent followed by the test compound. Stability of the compounds was determined by peak area of the test compounds after incubation and calculated as percent of the peak area observed at time zero.

Stability in mouse blood = type: in vitro ADME; details: on ice, percent unchanged test compound
Experimental: (§1) Stability of compounds were determined in fresh human whole blood with K2EDTA as the anticoagulant (stored refrigerated at 2-8° C. and used within 7 days of receipt). The experiment was conducted with three replicates for each time point. Whole blood, pre-incubated at 37° C. for 10-15 minutes, was fortified with a solution of test compound for a final concentration of 0.5 μM and mixed for 30 sec. At intervals (0, 0.5, 1 and 2 hr), three 50 μL aliquots were combined with 200 μL (each) of an ice-cold solution of the internal standard (carbutamide 500 ng/mL in acetonitrile). The samples were vortexed for 30 sec and then centrifuged at 16,100 g for 5 min. The supernatant was analyzed by LC-MS/MS. The MS peak area ratio of the test compounds versus the internal standard was calculated and percent unchanged test compound was calculated for each time point using this ratio.
The stability in mouse blood was determined on ice at 0, 0.5 and 1 hr as herein.

Zluc cells = test: cytotoxicity evaluation (CellTiter-Blue Cell Viability Assay); details: read-out: HCV Replicon CC50; Zluc cells, CellTiter-Blue
HCV genotype 1b replicon = test: HCV Replicon Assay; type: cell-based; details: Zluc cells (Huh-7-derived, HCV genotype 1b replicon, luciferase reporter), 72 hours; read-out: HCV Replicon EC50
Experimental: Huh-7-derived cell line (Zluc) that harbors an HCV genotype 1b replicon and a luciferase reporter gene was grown in Dulbecco's Modified Eagle Medium (DMEM) supplemented with 10% fetal bovine serum, 2 mM GlutaMAX, 1% MEM nonessential amino acids, 100 IU/mL penicillin, 100 μg/mL streptomycin, and 0.5 mg/mL Geneticin® (G418). For dose response testing the cells were seeded in 96-well plates at 7.5×10^3 cells per well in a volume of 50 μL, and incubated at 37° C./5% CO2. Drug solutions were made up freshly in Huh-7 media as 2× stocks. Ten additional 5-fold dilutions were prepared from these stocks in DMEM without G418. At least three hours after Zluc cells were seeded, drug treatment was initiated by adding 50 μL of drug dilutions to the plates in duplicate. Final concentrations of drug ranged from 100 μM to […]. Cells were then incubated at 37° C./5% CO2. Alternatively, compounds were tested at two concentrations (1 μM and 10 μM). […] For this, media was removed from the plates via gentle tapping. Fifty microliters of ONE-glo luciferase assay reagent was added to each well. The plates were shaken gently for 3 min at room temperature and luminescence was measured on a Victor^3 V 1420 multilabel counter (Perkin Elmer) with a 1 second read time using a 700 nm cut-off filter. The EC50 values were calculated from dose response curves from the resulting best-fit equations determined by Microsoft Excel and XLfit 4.1 software. When screening at two fixed concentrations, the results were expressed as % inhibition at 1 μM and 10 μM.

[2] = Stability in fresh human whole blood; type: in vitro ADME; details: 0.5 μM, percent unchanged test compound
Experimental: as §1

fresh human hepatocytes = test: Release of active metabolite in fresh human hepatocytes; type: in vitro ADME; details: 10 μM compound; for FHH TP Cmax: fresh human hepatocytes; for FHH TP AUC: fresh human hepatocytes, 6, 24 and 48 hours
Experimental: (§2) Plates of fresh human and mouse hepatocytes were obtained on ice. The medium was removed and replaced with hepatocyte culture medium (William's E supplemented with penicillin-streptomycin, 1% L-glutamine, 1% insulin-transferrin-selenium and 0.1 μM Dexamethasone (Invitrogen) or with Invitro GRO HI medium complemented with Torpedo antibiotics (Celsis)). Cells were left overnight in an incubator at 37° C. to acclimatize to culture and the medium.
(§3) Hepatocyte incubations were conducted at a final volume of 0.5 mL hepatocyte culture medium/well (0.8 million cells/well for human and 0.5 million cells/well for mouse; 12 well plate no overlay, collagen coat). Culture medium from overnight incubation of cells was removed and replaced with fresh medium, pre-warmed to 37° C., containing 10 μM of test compound from a stock solution in DMSO (final DMSO concentration was 0.1%). At each specific time point, incubation medium was removed and cell monolayers were carefully washed two times with ice-cold PBS. Following the last wash, all PBS was carefully removed and 1.0 mL of extraction solution (ice-cold 70% methanol/30% water) added. Cells were scraped off and suspended in the extraction solution, transferred to 2 mL polypropylene microfuge tubes and intracellular contents extracted overnight at −20° C.
(§4) After the overnight treatment the cellular extracts were prepared by centrifugation at 16,000×g for 10 min to remove cellular debris. The remaining sample was then dried using a refrigerated centrivap concentrator. Dry extracts were reconstituted in 1000 μL of HPLC-grade water and centrifuged at 16,000×g for 10 min. Aliquots (100 μL each) of the supernatant were transferred into a 96 well plate and internal standard (4 ng/mL final concentration) was added as the internal standard (IS) for LC-MS/MS analysis.
(§5) The incubation time points were 6, 24 and 48 hours for human hepatocytes and 1, 4, 8, 12 and 24 hours for mouse hepatocytes.

mouse hepatocytes = test: Release of active metabolite in mouse hepatocytes; type: in vitro ADME; details: 10 μM compound; for MsH AUC: mouse hepatocytes, 1, 4, 8, 12 and 24 hours
Experimental: as §2, §3, §4, §5

[3] = Liver pharmacokinetics following a single oral dose in CD-1 mice; type: in vivo; details: single oral dose 25 mg/kg in PEG 200, CD-1 male mice; given at 1 μmol/kg
Experimental: (§6) A single oral dose of test compound at 25 mg/kg in PEG 200 (dose volume 5 mL/kg) was administered to nine CD-1 male mice. Five untreated animals were used for the collection of control plasma and liver. Terminal plasma and liver samples were collected from three animals per time point at 4, 12 and 24 hours post dose. Liver specimens were collected from all animals immediately after the incision. Freezing forceps stored in liquid nitrogen were used to freeze the liver before excision.
Liver samples were analyzed for the active species 2′-methylguanosine triphosphate (2′-MeGTP) by LC-MS/MS. 2′-MeGTP levels were assayed by homogenizing (on ice) a known weight of mouse liver with 4× volume of 0.95 M trichloroacetic acid (TCA). Internal standard solution was added to the homogenate followed by neutralization with 20% ammonium hydroxide solution and addition of 500 μL 1% formic acid. The tissue samples were extracted by weak anion exchange solid phase extraction (SPE). Post extraction, the eluates were evaporated under nitrogen, followed by reconstitution before injection onto the LC-MS/MS system. The samples were chromatographed on a Luna NH2 column using a gradient system of ammonium acetate (1 mM to 20 mM and pH 8.0 to pH 10.0) in water and acetonitrile (70:30). The analyte was detected and quantified by tandem mass spectrometry in positive ion mode on an API4000 equipped with a Turbo Ionspray® interface. The calibration range was 10 to 10000 pmol/mL in mouse liver homogenate (50 to 50000 pmol/g of mouse liver).

[4] = Plasma pharmacokinetics following a single oral dose in CD-1 mice; type: in vivo; details: single oral dose 25 mg/kg in PEG 200, CD-1 male mice; given at 1 μmol/kg
Experimental: as §6
Plasma samples were analyzed for 2′-methylguanosine (2′-MeG) by LC-MS/MS. The internal standard (IS) was 2′-MeG-D3. For protein precipitation and extraction, each plasma sample (50 μL) was treated with 500 μL of 0.2% formic acid in acetonitrile and 20 μL of the internal standard working solution. After vortexing and centrifugation, 500 μL of the sample extracts were transferred to a new plate, dried under N2 at ˜28° C. and reconstituted with 75 μL of 0.2% FA in water. The extracts were chromatographed on an Aquasil C18 column using a gradient system of 0.2% formic acid in water and acetonitrile. The analytes were detected and quantified by tandem mass spectrometry in positive ion mode on an MDS Sciex API5000 equipped with a Turbo Ionspray® interface. The calibration range was 0.500 (LLOQ) to 200 ng/mL in mouse plasma.

Row | Structure (SMILES) | Stability SIF [1] | Stability WB_Mouse (ice; 1 hr) (Stability in mouse blood) | CC50 (Zluc cells) | EC50 (HCV genotype 1b replicon) | Stability WB_Human (37° C.; 2 hr) [2] | FHH TP Cmax (fresh human hepatocytes) | FHH TP AUC (fresh human hepatocytes) | MsH AUC (mouse hepatocytes) | MsH Cmax (mouse hepatocytes; mouse hepatocytes) | Ms Liver 2′-MeGTP AUC [3] | Ms Plasma 2′-MeG AUC [4] | Ms Plasma 2′-MeG Cmax [4]
1 | CCOc1nc(N)nc2c1ncn2[C@@H]1O[C@@H]2COP(=O)(OCCCC(=O)OC(C)C)O[C@H]2[C@@]1(C)F (single isomer, unassigned; diastereomer 1) [Compound 3 Diastereomer 1] | 92% | 14% | < 50 µM | < 0.25 µM | 20.5% |  |  |  |  |  |  | 
2 | CCOC(=O)CCOP1(=O)OC[C@H]2O[C@@H](n3cnc4c(OCC)nc(N)nc43)[C@](C)(F)[C@@H]2O1 (single isomer, unassigned; diastereomer 1) [Compound 8 Diastereomer 1] | 96% |  | > 50 µM | < 0.25 µM | 89% | BLD^a | BLD^a |  |  |  |  | 
3 | CCOc1nc(N)nc2c1ncn2C1OC2COP(=O)(OCC(NC(=O)OC)C(=O)OC(C)C)OC2C1(C)O (single isomer, unassigned; diastereomer 1) [Compound 14 Diastereomer 1] | 88% |  | < 50 µM | < 0.25 µM | 62% | 19 pmol/mill cells | 224 pmol · hr/mill cells |  |  |  |  | 
4 | CCOc1nc(N)nc2c1ncn2[C@@H]1O[C@@H]2COP(=O)(OCCC(=O)OC(C)C)O[C@H]2[C@@]1(C)F (single isomer, unassigned; diastereomer 1) [Compound 21 Diastereomer 1] | 91% |  |  |  | 86% | BLD^a | BLD^a | BLD^a |  |  |  | 
5 | CCOc1nc(N)nc2c1ncn2[C@@H]1O[C@@H]2COP(=O)(OCCCC(=O)OC(C)C)O[C@H]2[C@@]1(C)F (single isomer, unassigned; diastereomer 2) [Compound 3 Diastereomer 2] |  |  |  |  |  | 146 pmol/mill cells | 4574 pmol · hr/mill cells | 3265 pmol · hr/mill cells | 91 pmol/mill cells | 3200 pmol · hr/g at 1 μmol/kg | 160 pmol · hr/mL at 1 μmol/kg | 17 pmol/mL at 1 μmol/kg
6 | CCOC(=O)CCOP1(=O)OC[C@H]2O[C@@H](n3cnc4c(OCC)nc(N)nc43)[C@](C)(F)[C@@H]2O1 (single isomer, unassigned; diastereomer 2) [Compound 8 Diastereomer 2] | 94% |  | > 50 µM | < 0.25 µM | 34% | BLD^a | BLD^a |  |  |  |  | 
7 | CCOc1nc(N)nc2c1ncn2C1OC2COP(=O)(Oc3ccc(CC(NC(=O)OC)C(=O)OC(C)C)cc3)OC2C1(C)F (single isomer, unassigned; diastereomer 2) [Compound 13 Diastereomer 2] | 72% | 1% | > 50 µM | < 0.25 µM | 70% | 34 pmol/mill cells | 812 pmol · hr/mill cells |  |  |  |  | 
8 | CCOc1nc(N)nc2c1ncn2[C@@H]1O[C@@H]2COP(=O)(OCCC(=O)OC(C)C)O[C@H]2[C@@]1(C)O (single isomer, unassigned; diastereomer 2) [Compound 22 Diastereomer 2] | 101% |  | > 50 µM | < 0.25 µM | 88% | 28 pmol/mill cells | 742 pmol · hr/mill cells | BLD^a |  |  |  | 
